Test results taken from patent publication US20240277632A1, “Epinephrine Pharmaceutical Formulations for Intranasal Delivery” (priority 2020, published 2024).

Key:
[1] = aqueous epinephrine by the IN route, no enhancer; cited from earlier work
[2] = human; cohort 1 (T2, T4a, Ra)
[3] = tested on: rats; experiment: in vivo; conditions: rats
Description: (§1) Each rat was treated with two (2) IN administrations of the respective formulations in Groups A1-A5.
(§2) The analysis of clinical pathology was conducted by a qualified veterinary laboratory (Quality Veterinary Laboratory (QVL), Davis, California, USA).
(§3) Histopathological evaluation was conducted by a qualified pathology laboratory (Experimental Pathology Laboratories, Inc. (EPL), Sterling, Virginia, USA). […] EPL's histopathological findings were graded from 1 to 5, with 1 as minimal, and 5 as severe, depending upon severity.

[4] = in vivo; conditions: rat, in vivo
Description: as §1, §2, §3

[5] = tested on: nasal mucosa of rats; experiment: Local toxicity study of STCDC, histopathology of nasal mucosa (Example 5); assay type: in vivo; conditions: rat; after exposure to STCDC and epinephrine
Description: Example 5 is an animal study designed to investigate the possible histological effects of bile salts (STCDC) on nasal mucosa of rats when the bile salt is used as an absorption enhancer for IN delivery. […] These IN formulations were administered intranasally to the rats. The histopathology of the rat's nasal tissue was examined to evaluate nasal mucosa tolerance to these tested IN formulations.
In Table 5.1, Group Nos. 2-6 each had excipients of about 8.5 mg/mL sodium chloride, about 3.84 mg/mL citric acid, about 1.5 mg/mL sodium metabisulfite, about 2.3 mg/mL HCl (10% w/v), and a pH adjustor (NaOH) as needed to adjust the pH to 3.6. […]
In total, EPL assessed 48 types of microscopic findings in nasal turbinate cavity level I through IV, as detailed in Table 5.3. […]
In order to quantitatively analyze the data for histopathological findings, the three (3) quantities, (i) total observation point (TOP), denoted as TOP, (ii) Average TOP per item per rat, and (iii) average occurrence for Level i (AOL)-i (i=1-5) were analyzed.
where m1, m2, m3, m4, and m5 are number of findings with Level 1, 2, 3, 4, 5, respectively, from the 48 microscopic histopathological items (as detailed in Table 5.3) assessed by EPL, n is the number of rats examined.

In the case of `CNCC(O)c1ccc(O)c(O)c1` (single isomer, unassigned; (-)) [epinephrine, (-)-3,4-Dihy droxy-α-[(methyl-amino)methyl]benzyl alcohol], the “bioavailability (BA) based on AUC in plasma concentration, IN relative to same dose by IM route” value [1] is given as “approximately 5%”.
With `C[C@H](CCC(=O)NCCS(=O)(=O)[O-])[C@H]1CC[C@H]2[C@@H]3[C@H](O)C[C@@H]4C[C@H](O)CC[C@]4(C)[C@H]3C[C@H](O)[C@]12C.[Na+]` [STC, sodium taurocholate] the “baseline level of plasma STC” value [2] was “approximately 20 pg/mL”, the “NOAEL for bile salt (STC) at an IN delivery, relative dose” value ([3]; 15 mg/mL x 0.025 mL x 2, body weight 0.298 kg) was 2.5 mg/kg and the “NOAEL for the bile salt (STC), concentration” value ([3]; IN administration, highest studied concentration) was “exceeding 15 mg/mL”. The NOAEL [4] was no less than 2.5 mg/kg.
In the case of `C[C@H](CCC(=O)NCCS(=O)(=O)[O-])[C@H]1CC[C@H]2C3[C@H](O)C[C@@H]4C[C@H](O)CC[C@]4(C)[C@H]3CC[C@]12C.[Na+]` (stereo partly drawn) [STCDC, sodium taurochenodeoxycholate], the “course of observed nasal toxicity items over time (average TOP, FIG. 6D)” value [5] is reported as “nearly normal at two weeks post-dose”.
